The source made the active and inactive calls. The calls are words filed in the database; no cut-off is given here.
Experiments:
[1] = target: T1, Serine/threonine-protein kinase SMG1 (Homo sapiens, UniProt Q96Q15); assay: Inhibition of human recombinant SMG1 expressed in HEK293 cells using GST-tagged p53 as substrate after 1 hr by DELFIA assay
[2] = target: Cyclin-dependent kinase 1 (Homo sapiens, UniProt P06493); assay: Inhibition of CDK1
[3] = target: T2, Serine/threonine-protein kinase mTOR (Homo sapiens, UniProt P42345); assay: Inhibition of mTOR
[4] = target: Cyclin-dependent kinase 2 (Homo sapiens, UniProt P24941); assay: Inhibition of CDK2
Homo sapiens = species on record: Homo sapiens; assay: Selectivity ratio of IC50 for mTOR to IC50 for human recombinant SMG1
[5] = target: Phosphatidylinositol 4,5-bisphosphate 3-kinase catalytic subunit alpha isoform (Homo sapiens, UniProt P42336); assay: Inhibition of PI3Kalpha using diC8-tagged PIP2 as substrate after 30 to 60 mins by TAMRA-based fluorescence polarization assay
Phosphatidylinositol 4,5-bisphosphate 3-kinase catalytic subunit alpha isoform, sequence (P42336 whole entry, canonical isoform): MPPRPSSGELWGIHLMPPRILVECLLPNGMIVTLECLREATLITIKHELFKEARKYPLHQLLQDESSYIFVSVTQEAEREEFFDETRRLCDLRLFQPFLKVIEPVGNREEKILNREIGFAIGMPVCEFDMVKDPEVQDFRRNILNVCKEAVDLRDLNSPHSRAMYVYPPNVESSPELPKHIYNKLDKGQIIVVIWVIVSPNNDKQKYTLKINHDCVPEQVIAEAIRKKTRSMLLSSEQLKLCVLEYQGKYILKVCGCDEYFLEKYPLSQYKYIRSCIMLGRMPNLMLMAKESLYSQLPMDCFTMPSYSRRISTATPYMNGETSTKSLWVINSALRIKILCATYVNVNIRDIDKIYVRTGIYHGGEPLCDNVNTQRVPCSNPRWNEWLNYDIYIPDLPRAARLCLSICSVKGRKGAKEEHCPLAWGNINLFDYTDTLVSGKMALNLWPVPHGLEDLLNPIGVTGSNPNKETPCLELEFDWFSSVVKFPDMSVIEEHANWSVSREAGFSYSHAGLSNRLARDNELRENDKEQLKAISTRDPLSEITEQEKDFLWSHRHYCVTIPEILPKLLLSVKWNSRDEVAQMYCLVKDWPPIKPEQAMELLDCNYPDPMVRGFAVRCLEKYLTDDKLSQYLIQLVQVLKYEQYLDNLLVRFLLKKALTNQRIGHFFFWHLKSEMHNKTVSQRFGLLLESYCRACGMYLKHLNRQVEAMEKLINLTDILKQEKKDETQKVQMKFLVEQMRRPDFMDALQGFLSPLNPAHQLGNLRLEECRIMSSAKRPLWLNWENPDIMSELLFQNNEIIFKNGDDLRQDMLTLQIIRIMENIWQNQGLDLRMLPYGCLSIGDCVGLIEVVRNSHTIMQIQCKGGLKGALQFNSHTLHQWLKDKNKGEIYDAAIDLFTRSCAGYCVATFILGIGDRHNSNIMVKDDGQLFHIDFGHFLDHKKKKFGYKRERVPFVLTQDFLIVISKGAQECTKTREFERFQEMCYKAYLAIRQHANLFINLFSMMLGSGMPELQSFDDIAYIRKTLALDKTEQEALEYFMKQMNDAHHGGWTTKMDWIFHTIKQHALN

[6] = target: Phosphatidylinositol 4,5-bisphosphate 3-kinase catalytic subunit gamma isoform (Homo sapiens, UniProt P48736); assay: Inhibition of PI3Kgamma using diC8-tagged PIP2 as substrate after 30 to 60 mins by TAMRA-based fluorescence polarization assay
Phosphatidylinositol 4,5-bisphosphate 3-kinase catalytic subunit gamma isoform, sequence (P48736 whole entry, canonical isoform): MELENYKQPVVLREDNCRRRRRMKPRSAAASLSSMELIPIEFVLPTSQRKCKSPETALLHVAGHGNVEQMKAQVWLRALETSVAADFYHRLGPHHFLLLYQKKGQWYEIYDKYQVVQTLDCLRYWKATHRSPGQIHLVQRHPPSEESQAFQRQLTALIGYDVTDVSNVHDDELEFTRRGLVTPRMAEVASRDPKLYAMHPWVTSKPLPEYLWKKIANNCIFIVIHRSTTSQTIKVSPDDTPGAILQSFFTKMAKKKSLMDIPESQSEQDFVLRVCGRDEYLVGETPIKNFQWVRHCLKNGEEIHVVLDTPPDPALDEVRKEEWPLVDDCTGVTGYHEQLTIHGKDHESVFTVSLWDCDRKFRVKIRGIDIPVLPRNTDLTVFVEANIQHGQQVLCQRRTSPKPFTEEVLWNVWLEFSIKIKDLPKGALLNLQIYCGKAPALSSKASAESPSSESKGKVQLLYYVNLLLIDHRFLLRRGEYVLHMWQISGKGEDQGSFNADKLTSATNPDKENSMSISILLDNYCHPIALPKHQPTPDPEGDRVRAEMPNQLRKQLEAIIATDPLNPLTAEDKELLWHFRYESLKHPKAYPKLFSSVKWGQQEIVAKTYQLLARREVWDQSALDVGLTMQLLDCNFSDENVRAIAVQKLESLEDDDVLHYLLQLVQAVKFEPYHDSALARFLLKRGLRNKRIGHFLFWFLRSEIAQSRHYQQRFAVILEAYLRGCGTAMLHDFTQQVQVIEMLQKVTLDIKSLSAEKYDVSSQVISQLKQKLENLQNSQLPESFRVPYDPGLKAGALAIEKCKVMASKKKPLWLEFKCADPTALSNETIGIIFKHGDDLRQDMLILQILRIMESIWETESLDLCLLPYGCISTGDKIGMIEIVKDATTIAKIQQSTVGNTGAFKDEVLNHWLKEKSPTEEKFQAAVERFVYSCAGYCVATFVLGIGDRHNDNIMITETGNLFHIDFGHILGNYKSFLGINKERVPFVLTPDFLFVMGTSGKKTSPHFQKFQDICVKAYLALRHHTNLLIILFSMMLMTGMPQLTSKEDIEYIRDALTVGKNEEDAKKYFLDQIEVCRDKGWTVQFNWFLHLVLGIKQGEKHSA

MDA-MB-468 = assay: Cytotoxicity against human MDA-MB-468 cells; type: functional, cell-based
[7] = target: T1, Serine/threonine-protein kinase SMG1; assay: Inhibition of SMG1 in human MDA-MB-361 cells assessed as inhibition of UPF1 phosphorylation at 1 uM after 6 hrs by immunostaining analysis; type: cell-based
MDA-MB-361 = assay: Inhibition of PI3K in human MDA-MB-361 cells assessed as inhibition of AKT phosphorylation at 0.3 to 3 uM after 6 hrs by immunostaining analysis; type: cell-based
[8] = target: Glycogen synthase kinase-3 alpha (Homo sapiens, UniProt P49840); assay: Inhibition of GSK3alpha
Glycogen synthase kinase-3 alpha, sequence (P49840 whole entry): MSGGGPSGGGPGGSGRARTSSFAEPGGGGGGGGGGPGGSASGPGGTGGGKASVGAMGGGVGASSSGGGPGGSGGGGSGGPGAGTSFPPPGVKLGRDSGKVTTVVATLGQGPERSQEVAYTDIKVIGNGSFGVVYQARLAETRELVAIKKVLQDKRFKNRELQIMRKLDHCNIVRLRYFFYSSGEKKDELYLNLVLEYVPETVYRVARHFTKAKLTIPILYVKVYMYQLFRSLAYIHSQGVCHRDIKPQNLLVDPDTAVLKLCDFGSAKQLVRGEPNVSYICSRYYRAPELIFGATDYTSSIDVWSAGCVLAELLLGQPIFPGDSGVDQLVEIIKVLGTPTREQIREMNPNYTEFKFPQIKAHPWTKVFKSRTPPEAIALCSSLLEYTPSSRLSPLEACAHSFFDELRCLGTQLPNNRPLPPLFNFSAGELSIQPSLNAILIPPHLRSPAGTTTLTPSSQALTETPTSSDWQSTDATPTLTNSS

[9] = target: T1, Serine/threonine-protein kinase SMG1; assay: Inhibition of SMG1 in human MDA-MB-361 cells assessed as inhibition of UPF1 phosphorylation at 0.3 uM after 6 hrs by immunostaining analysis; type: cell-based
[10] = target: T2, Serine/threonine-protein kinase mTOR; assay: Inhibition of mTOR in human MDA-MB-361 cells assessed as inhibition of p70S6K phosphorylation at 0.3 to 3 uM after 6 hrs by immunostaining analysis; type: cell-based
[11] = target: Glycogen synthase kinase-3 beta (Homo sapiens, UniProt P49841); assay: Inhibition of GSK3beta
Glycogen synthase kinase-3 beta, sequence (P49841 whole entry): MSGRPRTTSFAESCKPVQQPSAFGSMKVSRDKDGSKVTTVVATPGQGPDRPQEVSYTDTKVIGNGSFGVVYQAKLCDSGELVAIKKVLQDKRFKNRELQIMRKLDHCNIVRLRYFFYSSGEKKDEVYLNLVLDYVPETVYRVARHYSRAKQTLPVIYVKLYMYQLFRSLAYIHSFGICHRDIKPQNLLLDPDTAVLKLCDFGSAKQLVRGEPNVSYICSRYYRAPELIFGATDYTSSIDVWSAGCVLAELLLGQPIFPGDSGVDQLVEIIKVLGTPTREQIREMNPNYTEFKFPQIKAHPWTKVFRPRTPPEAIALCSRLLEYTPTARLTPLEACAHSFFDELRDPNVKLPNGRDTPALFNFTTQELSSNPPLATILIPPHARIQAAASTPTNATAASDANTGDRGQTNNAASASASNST

[12] = target: T1, Serine/threonine-protein kinase SMG1; assay: Inhibition of SMG1 in human MDA-MB-361 cells assessed as inhibition of UPF1 phosphorylation up to 3 uM after 6 hrs by immunostaining analysis; type: cell-based
[13] = target: T1, Serine/threonine-protein kinase SMG1; assay: Inhibition of SMG1 in human MDA-MB-361 cells assessed as inhibition of UPF1 phosphorylation after 6 hrs by immunostaining analysis; type: cell-based

Cyclin-dependent kinase 1, sequence (P06493 whole entry): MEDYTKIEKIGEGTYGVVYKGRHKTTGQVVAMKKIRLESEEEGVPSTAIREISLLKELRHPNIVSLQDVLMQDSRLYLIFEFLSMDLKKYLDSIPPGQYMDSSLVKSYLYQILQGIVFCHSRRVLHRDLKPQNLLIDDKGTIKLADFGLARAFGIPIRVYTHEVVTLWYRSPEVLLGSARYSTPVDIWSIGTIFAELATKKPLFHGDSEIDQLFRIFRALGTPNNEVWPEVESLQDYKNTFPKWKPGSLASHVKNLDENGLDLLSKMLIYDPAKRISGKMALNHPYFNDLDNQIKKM

IC50 [1] [nM]	IC50 [2] [nM]	IC50 [3] [nM]	IC50 [4] [nM]	Ratio IC50 (Homo sapiens)	SMILES	further results
25	100	3200	31	130	NS(=O)(=O)c1cccc(Nc2nccc(-c3ccnc(N4C5CCC4COC5)c3)n2)c1	
< 0.05	1400	12	520	> 244	CNC(=O)Nc1ccc(-c2cc(-c3ccnc(Nc4ccc(Cl)c(S(=O)(=O)N(C)C)c4)n3)ccn2)cc1	IC50 [5]: 33 nM; IC50 [6]: 54 nM
330	100	> 20000	46	> 61	Cc1cccc(Nc2nccc(-c3ccnc(N4CCOCC4)c3)n2)c1	
< 0.05	1200	45	460	> 900	CNC(=O)Nc1ccc(-c2cc(-c3ccnc(Nc4ccc(C)c(S(=O)(=O)N(C)C)c4)n3)ccn2)cc1	IC50 [5]: 61 nM; IC50 [6]: 72 nM
0.2	3200	25	560	125	CCN(CC)S(=O)(=O)c1cccc(Nc2nccc(-c3ccnc(-c4ccc(NC(=O)NC)cc4)c3)n2)c1	IC50 [5]: 78 nM; IC50 [6]: 59 nM
3	7.4	110	< 5.2	37	CCN(CC)c1cc(-c2ccnc(Nc3cccc(S(N)(=O)=O)c3)n2)ccn1	
80		> 4000		> 50	N#Cc1cccc(Nc2nccc(-c3ccnc(N4CCOCC4)c3)n2)c1	
< 0.05	62	18	23	> 360	CNC(=O)Nc1ccc(-c2cc(-c3ccnc(Nc4cccc(S(N)(=O)=O)c4)n3)ccn2)cc1	IC50 [5]: 44 nM; IC50 [6]: 91 nM
450		890			NS(=O)(=O)c1ccc(Nc2nccc(-c3cccc(C(=O)N4CCCCC4)c3)n2)cc1	
280	35	> 20000	8.9	> 71	Clc1cccc(Nc2nccc(-c3ccnc(N4CCOCC4)c3)n2)c1	
< 0.05	230	18	110	> 350	CNC(=O)Nc1ccc(-c2cc(-c3ccnc(Nc4ccc(C)c(S(=O)(=O)NC)c4)n3)ccn2)cc1	IC50 [5]: 43 nM; IC50 [6]: 63 nM
1500		> 4000		> 3	c1ccc(Nc2nccc(-c3ccnc(N4CCOCC4)c3)n2)cc1	
1000		> 20000		> 19	Clc1ccc(Nc2nccc(-c3ccnc(N4CCOCC4)c3)n2)cc1	
11	55	610	19	56	NS(=O)(=O)c1cccc(Nc2nccc(-c3ccnc(N4CCOCC4)c3)n2)c1	
0.1	210	15	100	> 150	CNC(=O)Nc1ccc(-c2cc(-c3ccnc(Nc4cccc(S(=O)(=O)NC)c4)n3)ccn2)cc1	IC50 [5]: 80 nM; IC50 [6]: 82 nM
310		3300		10	CN1CCN(c2cc(-c3ccnc(Nc4cccc(S(N)(=O)=O)c4)n3)ccn2)CC1	
110	< 5.2	800	< 5.2	8	OCCCNc1cc(-c2ccnc(Nc3cccc(Cl)c3)n2)ccn1	
0.2	14000	88	3000	440	CCN(CC)S(=O)(=O)c1cc(Nc2nccc(-c3ccnc(-c4ccc(NC(=O)NC)cc4)c3)n2)ccc1C	IC50 [5]: 130 nM; IC50 [6]: 93 nM
22	12	320	6.7	15	NS(=O)(=O)c1cccc(Nc2nccc(-c3ccnc(NCCCO)c3)n2)c1	
0.11	32000	50	7100	455	CCN(CC)S(=O)(=O)c1cc(Nc2nccc(-c3ccnc(-c4ccc(NC(=O)NC)cc4)c3)n2)ccc1Cl	IC50 (MDA-MB-468): 75 nM; inhibition [7]: Active; IC50 [5]: 92 nM; inhibition (MDA-MB-361): inactive; IC50 [8]: 260 nM; inhibition [9]: Active; inhibition [10]: inactive; IC50 [6]: 60 nM; IC50 [11]: 330 nM
1100		4600		4	COc1cccc(Nc2nccc(-c3ccnc(N4CCOCC4)c3)n2)c1	
250		1700		7	FC(F)(F)c1cccc(Nc2nccc(-c3ccnc(N4CCOCC4)c3)n2)c1	
370		> 20000		> 54	NS(=O)(=O)c1ccc(Nc2nccc(-c3ccnc(N4CCOCC4)c3)n2)cc1	inhibition [12]: inactive
3	36	140	16	47	NS(=O)(=O)c1cccc(Nc2nccc(-c3ccnc(N4CCCCC4)c3)n2)c1	inhibition [13]: Dose-dependent effect; inhibition (MDA-MB-361): Active; inhibition [10]: Active
6	48	200	21	33	NS(=O)(=O)c1cccc(Nc2nccc(-c3ccnc(N4CC5CCC(C4)O5)c3)n2)c1	
< 0.05		16		> 320	CNC(=O)Nc1ccc(-c2cc(-c3ccnc(Nc4ccc(C)c(S(N)(=O)=O)c4)n3)ccn2)cc1	
< 0.05	320	7.7	140	> 154	CNC(=O)Nc1ccc(-c2cc(-c3ccnc(Nc4ccc(Cl)c(S(=O)(=O)NC)c4)n3)ccn2)cc1	

Reference: ChEMBL document CHEMBL2157945, “Identification of pyrimidine derivatives as hSMG-1 inhibitors” (Bioorg Med Chem Lett, 2012)
